{
  "source": "ChEMBL document CHEMBL5120971",
  "about": "“Network Pharmacology Research and Dual-omic Analyses Reveal the Molecular Mechanism of Natural Product Nodosin Inhibiting Muscle-Invasive Bladder Cancer in Vitro and in Vivo” (J Nat Prod, 2022)",
  "key": {"[1]": {"system": "T-24", "experiment": "Induction of apoptosis in human T24 cells assessed as necrotic cells at 8 uM measured after 48 hrs by Annexin V-FITC/propidium iodide staining based flow cytometry (reference value: 0.57%)", "format": "functional"}, "[2]": {"system": "T-24", "experiment": "Up regulation of AIFM2 expression in human T24 cells at 6 uM measured after 24 to 30 hrs by proteomic analysis", "format": "functional, cell-based", "conditions": "time 24-30 hrs"}, "[3]": {"system": "T-24", "experiment": "Induction of mitochondrial membrane disruption in human T24 cells at 4 to 8 uM measured after 48 hrs by transmission electron microscopy", "format": "cell-based", "conditions": "dose 4-8 µM"}, "[4]": {"system": "T-24", "experiment": "Induction of apoptosis in human T24 cells assessed as early apoptotic cells at 4 uM measured after 48 hrs by Annexin V-FITC/propidium iodide staining based flow cytometry (reference value: 1.2%)", "format": "functional"}, "[5]": {"system": "T-24", "experiment": "Induction of cell membrane disruption in human T24 cells at 4 to 20 uM measured after 24 hrs by Dio/Hoechst 33342 staining based fluorescence assay", "conditions": "dose 4-20 µM"}, "[6]": {"system": "T-24", "experiment": "Antitumor activity against human T24 cells xenografted in BALB/c mouse assessed as reduction in Ki67 expression at 2 mg/kg, ip administered at 2 days interval by immunohistochemical analysis", "format": "functional, organism-based"}, "[7]": {"system": "T-24", "experiment": "Induction of autophagy in human T24 cells assessed as up regulation of MAP1LC3B gene expression at 6 uM measured after 12 to 18 hrs by transcriptome analysis", "format": "functional, cell-based", "conditions": "time 12-18 hrs"}, "[8]": {"system": "T-24", "experiment": "Induction of apoptosis in human T24 cells assessed as necrotic cells at 4 uM measured after 48 hrs by Annexin V-FITC/propidium iodide staining based flow cytometry (reference value: 0.57%)", "format": "functional"}, "[9]": {"system": "T-24", "experiment": "Antimigratory activity against human T24 cells assessed as down regulation of LIMA1 expression at 6 uM measured after 24 to 30 hrs by proteomic analysis", "format": "functional, cell-based", "conditions": "time 24-30 hrs"}, "[10]": {"system": "T-24", "experiment": "Induction of mitochondrial membrane potential loss in human T24 cells at 8 to 16 uM measured after 24 hrs by JC1 dye based fluorescence assay", "format": "functional, cell-based", "conditions": "dose 8-16 µM"}, "[11]": {"system": "T-24", "experiment": "Induction of morphological changes in human T24 cells assessed as reduction in cell extension at 4 to 12 uM measured after 48 hrs by microscopy", "format": "functional, cell-based", "conditions": "dose 4-12 µM"}, "[12]": {"system": "T-24", "experiment": "Induction of apoptosis in human T24 cells assessed as effect on ARL6IP1 expression at 6 uM measured after 24 to 30 hrs by proteomic analysis", "format": "functional, cell-based", "conditions": "time 24-30 hrs"}, "[13]": {"system": "UMUC3", "experiment": "Cytotoxicity against human UMUC3 cells assessed as reduction in cell growth by CCK8 assay", "format": "functional, cell-based"}, "[14]": {"system": "T-24", "experiment": "Induction of autophagy in human T24 cells assessed as effect on CISD2 gene expression at 6 uM measured after 12 to 18 hrs by transcriptome analysis", "format": "functional, cell-based", "conditions": "time 12-18 hrs"}, "[15]": {"system": "T-24", "experiment": "Antimigratory activity against human T24 cells assessed as down regulation of ITGA3 expression at 6 uM measured after 24 to 30 hrs by proteomic analysis", "format": "functional, cell-based", "conditions": "time 24-30 hrs"}, "[16]": {"system": "T-24", "experiment": "Effect on NEK6 expression in human T24 cells at 6 uM measured after 24 to 30 hrs by proteomic analysis", "format": "functional, cell-based", "conditions": "time 24-30 hrs"}, "[17]": {"system": "T-24", "experiment": "Induction of apoptosis in human T24 cells assessed as effect on SQSTM1 expression at 6 uM measured after 24 to 30 hrs by proteomic analysis", "format": "functional, cell-based", "conditions": "time 24-30 hrs"}, "[18]": {"system": "T-24", "experiment": "Induction of apoptosis in human T24 cells assessed as early apoptotic cells at 6 uM measured after 48 hrs by Annexin V-FITC/propidium iodide staining based flow cytometry (reference value: 1.2%)", "format": "functional"}, "[19]": {"system": "T-24", "experiment": "Induction of apoptosis in human T24 cells assessed as effect on TRIAP1 expression at 6 uM measured after 24 to 30 hrs by proteomic analysis", "format": "functional, cell-based", "conditions": "time 24-30 hrs"}, "[20]": {"system": "T-24", "experiment": "Induction of apoptosis in human T24 cells assessed as up regulation of HMOX1 gene expression at 6 uM measured after 12 to 18 hrs by transcriptome analysis", "format": "functional, cell-based", "conditions": "time 12-18 hrs"}, "[21]": {"system": "T-24", "experiment": "Antimigratory activity against human T24 cells at 4 to 12 uM measured after 24 hrs by scratch test", "format": "functional, cell-based", "conditions": "dose 4-12 µM"}, "[22]": {"system": "T-24", "experiment": "Induction of apoptosis in human T24 cells assessed as up regulation of SQSTM1 gene expression at 6 uM measured after 12 to 18 hrs by transcriptome analysis", "format": "functional, cell-based", "conditions": "time 12-18 hrs"}, "[23]": {"system": "T-24", "experiment": "Antitumor activity against human T24 cells xenografted in BALB/c mouse assessed as reduction in mitotic count at 2 mg/kg, ip administered at 2 days interval by H and E staining based assay", "format": "functional, organism-based"}, "[24]": {"system": "T-24", "experiment": "Effect on NBN expression in human T24 cells at 6 uM measured after 24 to 30 hrs by proteomic analysis", "format": "functional, cell-based", "conditions": "time 24-30 hrs"}, "[25]": {"system": "T-24", "experiment": "Inhibition of colony formation in human T24 cells at 1 to 12 uM measured after 12 days by crystal violet staining based microscopy", "format": "functional, cell-based", "conditions": "dose 1-12 µM, time 12.0 day"}, "[26]": {"system": "T-24", "experiment": "Effect on PDCD2L expression in human T24 cells at 6 uM measured after 24 to 30 hrs by proteomic analysis", "format": "functional, cell-based", "conditions": "time 24-30 hrs"}, "[27]": {"system": "T-24", "experiment": "Cell cycle arrest in human T24 cells assessed as increase in cell accumulation at S-phase at 2 to 8 uM measured after 24 hrs by propidium iodide staining based flow cytometry", "format": "functional", "conditions": "dose 2-8 µM"}, "[28]": {"system": "T-24", "experiment": "Antitumor activity against human T24 cells xenografted in BALB/c mouse assessed as increase in HMOX1expression at 2 mg/kg, ip administered at 2 days interval by immunohistochemical analysis", "format": "functional, organism-based"}, "[29]": {"system": "T-24", "experiment": "Induction of ROS generation in human T24 cells at 4 to 10 uM measured after 6 hrs by H2DCFDA probe based flow cytometry", "format": "functional, cell-based", "conditions": "dose 4-10 µM"}, "[30]": {"system": "T-24", "experiment": "Induction of morphological changes in human T24 cells assessed as cytoplasmic condensation at 4 to 12 uM measured after 48 hrs by microscopy", "format": "functional, cell-based", "conditions": "dose 4-12 µM"}, "[31]": {"system": "T-24", "experiment": "Up regulation of FTL expression in human T24 cells at 6 uM measured after 24 to 30 hrs by proteomic analysis", "format": "functional, cell-based", "conditions": "time 24-30 hrs"}, "[32]": {"system": "T-24", "experiment": "Induction of apoptosis in human T24 cells assessed as effect on ZFP36L1 expression at 6 uM measured after 24 to 30 hrs by proteomic analysis", "format": "functional, cell-based", "conditions": "time 24-30 hrs"}, "[33]": {"system": "T-24", "experiment": "Induction of apoptosis in human T24 cells assessed as late apoptotic cells at 6 uM measured after 48 hrs by Annexin V-FITC/propidium iodide staining based flow cytometry (reference value: 0.74%)", "format": "functional"}, "[34]": {"system": "T-24", "experiment": "Induction of apoptosis in human T24 cells assessed as early apoptotic cells at 8 uM measured after 48 hrs by Annexin V-FITC/propidium iodide staining based flow cytometry (reference value: 1.2%)", "format": "functional"}, "[35]": {"system": "T-24", "experiment": "Effect on RPA2 expression in human T24 cells at 6 uM measured after 24 to 30 hrs by proteomic analysis", "format": "functional, cell-based", "conditions": "time 24-30 hrs"}, "[36]": {"system": "T-24", "experiment": "Induction of apoptosis in human T24 cells assessed as up regulation of HMOX1 expression at 6 to 12 uM measured after 24 to 30 hrs by Western blot analysis", "format": "functional, cell-based", "conditions": "dose 6-12 µM, time 24-30 hrs"}, "[37]": {"system": "SW780", "experiment": "Cytotoxicity against human SW780 cells assessed as reduction in cell growth by CCK8 assay", "format": "functional, cell-based"}, "[38]": {"system": "T-24", "experiment": "Effect on CDKN3 expression in human T24 cells at 6 uM measured after 24 to 30 hrs by proteomic analysis", "format": "functional, cell-based", "conditions": "time 24-30 hrs"}, "[39]": {"system": "T-24", "experiment": "Effect on POLD3 expression in human T24 cells at 6 uM measured after 24 to 30 hrs by proteomic analysis", "format": "functional, cell-based", "conditions": "time 24-30 hrs"}},
  "note": "pIC50: −log10 of the molar value. Calls of active or inactive are those of the source. No cut-off for these calls is given here.",
  "data": [
    {"smiles": "C=C1C(=O)[C@]23C[C@H]1C[C@@H](O)[C@H]2[C@@]12CO[C@@H](O)[C@@H]1C(C)(C)CC[C@@H]2OC3=O", "note": "[NODOSIN]", "values": [
      {"measurement": "Activity", "setting": "[1]", "value": 0.35, "unit": "%"},
      {"measurement": "Activity", "setting": "[2]", "value": "Active"},
      {"measurement": "Activity", "setting": "[3]", "value": "Active"},
      {"measurement": "Activity", "setting": "[4]", "value": 2.38, "unit": "%"},
      {"measurement": "Activity", "setting": "[5]", "value": "Active"},
      {"measurement": "Activity", "setting": "[6]", "value": "Active"},
      {"measurement": "Activity", "setting": "[7]", "value": "Active"},
      {"measurement": "Activity", "setting": "[8]", "value": 0.2, "unit": "%"},
      {"measurement": "Activity", "setting": "[9]", "value": "Active"},
      {"measurement": "Activity", "setting": "[10]", "value": "Active"},
      {"measurement": "Activity", "setting": "[11]", "value": "Active"},
      {"measurement": "Activity", "setting": "[12]", "value": "Active"},
      {"measurement": "pIC50", "setting": "[13]", "value": 5.46},
      {"measurement": "Activity", "setting": "[13]; DDE = dose-dependent effect", "value": "Dde"},
      {"measurement": "Activity", "setting": "[14]", "value": "Active"},
      {"measurement": "Activity", "setting": "[15]", "value": "Active"},
      {"measurement": "Activity", "setting": "[16]", "value": "Active"},
      {"measurement": "Activity", "setting": "[17]", "value": "Active"},
      {"measurement": "Activity", "setting": "[18]", "value": 10.74, "unit": "%"},
      {"measurement": "Activity", "setting": "[19]", "value": "Active"},
      {"measurement": "Activity", "setting": "[20]", "value": "Active"},
      {"measurement": "Activity", "setting": "[21]", "value": "Active"},
      {"measurement": "Activity", "setting": "[22]", "value": "Active"},
      {"measurement": "Activity", "setting": "[23]", "value": "Active"},
      {"measurement": "Activity", "setting": "[24]", "value": "Active"},
      {"measurement": "inhibition", "setting": "[25]", "value": "Active"},
      {"measurement": "Activity", "setting": "[26]", "value": "Active"},
      {"measurement": "Activity", "setting": "[27]", "value": "Active"},
      {"measurement": "Activity", "setting": "[28]", "value": "Active"},
      {"measurement": "Activity", "setting": "[29]", "value": "Active"},
      {"measurement": "Activity", "setting": "[30]", "value": "Active"},
      {"measurement": "Activity", "setting": "[31]", "value": "Active"},
      {"measurement": "Activity", "setting": "[32]", "value": "Active"},
      {"measurement": "Activity", "setting": "[33]", "value": 10.04, "unit": "%"},
      {"measurement": "Activity", "setting": "[34]", "value": 10.54, "unit": "%"},
      {"measurement": "Activity", "setting": "[35]", "value": "Active"},
      {"measurement": "Activity", "setting": "[36]", "value": "Active"},
      {"measurement": "pIC50", "setting": "[37]", "value": 5.00},
      {"measurement": "Activity", "setting": "[37]; DDE = dose-dependent effect", "value": "Dde"},
      {"measurement": "Activity", "setting": "[38]", "value": "Active"},
      {"measurement": "Activity", "setting": "[39]", "value": "Active"}
    ]}
  ]
}
